The text below walks through data of ChEMBL document CHEMBL5120959, “Pyrrospirones K-Q, Decahydrofluorene-Class Alkaloids from the Marine-Derived Fungus Penicillium sp. SCSIO 41512” (J Nat Prod, 2022).

The subject of one test is Streptococcus agalactiae. The test can be described thus: Antibacterial activity against Streptococcus agalactiae ATCC 13813 assessed as reduction in microbial growth after 12 hrs by microbroth dilution method. The class given is functional.
Test [1] relates to Staphylococcus aureus. In words: Antibacterial activity against Staphylococcus aureus ATCC 6538 assessed as reduction in microbial growth after 12 hrs by microbroth dilution method. Format: functional. (In general: In broth dilution the organism is exposed to a series of concentrations in liquid medium.)
The test system of test [2] is Staphylococcus aureus. In words: Antibacterial activity against methicillin-resistant Staphylococcus aureus assessed as reduction in microbial growth after 12 hrs by microbroth dilution method. Format: functional.
The test system of test [3] is Bacillus amyloliquefaciens. The test can be described thus: Antibacterial activity against Bacillus amyloliquefaciens GDMCC 60233 assessed as reduction in microbial growth after 12 hrs by microbroth dilution method. Format: functional.
A further test has as its system Bacillus subtilis. In words: Antibacterial activity against Bacillus subtilis BS01 assessed as reduction in microbial growth after 12 hrs by microbroth dilution method. The class given is functional.
In test [4] the target is Tyrosine-protein phosphatase non-receptor type 6 (Homo sapiens, UniProt P29350). In words: Inhibition of human SHP1.
The target in test [5] is Receptor-type tyrosine-protein phosphatase F (Homo sapiens, UniProt P10586). In words: Inhibition of human LAR.
The test system of a further test is NCI-H1975. The test can be described thus: Cytotoxicity against human NCI-H1975 cells assessed as reduction in cell viability after 24 hrs by CCK8 assay. The class given is functional, cell-based. The settings on record: NCI-H1975, 24 h.
Test [6] addresses T1, Receptor-type tyrosine-protein phosphatase C (Homo sapiens, UniProt P08575).
T1 sequence (P08575 whole entry): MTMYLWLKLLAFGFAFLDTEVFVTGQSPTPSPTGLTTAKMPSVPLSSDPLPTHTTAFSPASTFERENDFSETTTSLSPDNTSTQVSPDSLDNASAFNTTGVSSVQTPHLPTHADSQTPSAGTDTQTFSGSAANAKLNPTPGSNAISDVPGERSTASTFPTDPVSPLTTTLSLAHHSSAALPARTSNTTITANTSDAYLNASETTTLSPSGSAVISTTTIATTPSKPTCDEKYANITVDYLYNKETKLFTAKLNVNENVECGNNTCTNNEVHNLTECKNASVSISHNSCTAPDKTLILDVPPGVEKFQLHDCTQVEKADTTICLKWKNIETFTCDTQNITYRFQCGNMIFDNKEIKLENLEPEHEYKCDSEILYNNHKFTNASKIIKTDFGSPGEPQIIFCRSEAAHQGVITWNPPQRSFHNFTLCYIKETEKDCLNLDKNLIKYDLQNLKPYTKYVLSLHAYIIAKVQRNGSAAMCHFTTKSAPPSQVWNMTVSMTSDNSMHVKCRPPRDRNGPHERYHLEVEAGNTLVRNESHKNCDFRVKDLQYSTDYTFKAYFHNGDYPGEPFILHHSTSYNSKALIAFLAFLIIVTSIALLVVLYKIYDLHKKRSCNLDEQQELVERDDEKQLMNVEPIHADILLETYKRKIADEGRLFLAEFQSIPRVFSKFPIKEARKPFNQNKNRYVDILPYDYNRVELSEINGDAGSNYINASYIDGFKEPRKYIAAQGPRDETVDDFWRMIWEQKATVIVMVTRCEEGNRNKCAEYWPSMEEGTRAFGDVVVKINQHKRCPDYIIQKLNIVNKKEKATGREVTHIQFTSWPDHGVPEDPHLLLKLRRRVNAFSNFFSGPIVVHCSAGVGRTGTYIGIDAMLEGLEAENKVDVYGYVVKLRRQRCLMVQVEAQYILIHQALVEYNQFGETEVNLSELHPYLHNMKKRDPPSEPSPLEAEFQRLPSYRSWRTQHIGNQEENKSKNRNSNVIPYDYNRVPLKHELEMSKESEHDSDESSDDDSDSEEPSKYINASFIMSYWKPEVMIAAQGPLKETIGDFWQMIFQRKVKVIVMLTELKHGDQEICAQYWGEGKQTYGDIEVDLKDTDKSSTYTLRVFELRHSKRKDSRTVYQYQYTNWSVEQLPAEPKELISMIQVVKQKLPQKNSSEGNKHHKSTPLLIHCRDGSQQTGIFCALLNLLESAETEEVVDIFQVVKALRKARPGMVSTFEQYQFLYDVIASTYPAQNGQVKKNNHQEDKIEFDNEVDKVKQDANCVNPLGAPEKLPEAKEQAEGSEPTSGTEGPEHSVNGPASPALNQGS
In words: Inhibition of human CD45.

A further test has as its system Escherichia coli. In words: microbe, parasite or virus in culture. The class given is functional. The settings on record: ATCC 25922, time 12 hrs.
The target of test [7] is T2, Tyrosine-protein phosphatase non-receptor type 1 (Homo sapiens, UniProt P18031).
T2 sequence (P18031 whole entry): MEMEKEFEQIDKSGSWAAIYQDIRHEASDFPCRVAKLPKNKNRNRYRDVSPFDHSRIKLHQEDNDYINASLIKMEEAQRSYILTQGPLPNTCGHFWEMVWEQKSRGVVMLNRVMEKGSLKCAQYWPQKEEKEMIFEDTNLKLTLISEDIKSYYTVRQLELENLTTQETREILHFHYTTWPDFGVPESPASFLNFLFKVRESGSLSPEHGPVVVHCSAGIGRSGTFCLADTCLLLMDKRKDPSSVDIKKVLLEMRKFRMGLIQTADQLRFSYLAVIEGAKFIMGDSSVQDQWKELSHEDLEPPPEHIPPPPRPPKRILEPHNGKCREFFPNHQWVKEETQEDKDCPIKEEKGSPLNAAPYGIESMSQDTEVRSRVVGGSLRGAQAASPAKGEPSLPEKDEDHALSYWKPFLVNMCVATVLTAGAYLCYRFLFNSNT
The test can be described thus: Inhibition of human PTP1B.

Test [8] has as its target T3, Tyrosine-protein phosphatase non-receptor type 2 (Homo sapiens, UniProt P17706).
T3 sequence (P17706 whole entry): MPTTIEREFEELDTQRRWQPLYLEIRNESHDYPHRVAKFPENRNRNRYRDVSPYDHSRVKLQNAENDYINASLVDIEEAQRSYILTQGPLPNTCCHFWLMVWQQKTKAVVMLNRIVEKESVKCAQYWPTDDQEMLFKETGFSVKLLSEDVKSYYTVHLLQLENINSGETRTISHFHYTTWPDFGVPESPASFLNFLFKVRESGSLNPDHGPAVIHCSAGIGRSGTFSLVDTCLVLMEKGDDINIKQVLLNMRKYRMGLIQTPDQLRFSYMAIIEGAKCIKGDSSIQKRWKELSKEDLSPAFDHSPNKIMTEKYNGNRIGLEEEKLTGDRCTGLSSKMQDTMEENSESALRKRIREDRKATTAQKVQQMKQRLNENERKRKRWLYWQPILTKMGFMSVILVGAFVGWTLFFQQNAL
The test can be described thus: Inhibition of human TCPTP.

≈ marks a conversion by molar mass, not a printed value. Bounds are passed on as bounds.

Chain of Tyrosine-protein phosphatase non-receptor type 6 (P29350 whole entry): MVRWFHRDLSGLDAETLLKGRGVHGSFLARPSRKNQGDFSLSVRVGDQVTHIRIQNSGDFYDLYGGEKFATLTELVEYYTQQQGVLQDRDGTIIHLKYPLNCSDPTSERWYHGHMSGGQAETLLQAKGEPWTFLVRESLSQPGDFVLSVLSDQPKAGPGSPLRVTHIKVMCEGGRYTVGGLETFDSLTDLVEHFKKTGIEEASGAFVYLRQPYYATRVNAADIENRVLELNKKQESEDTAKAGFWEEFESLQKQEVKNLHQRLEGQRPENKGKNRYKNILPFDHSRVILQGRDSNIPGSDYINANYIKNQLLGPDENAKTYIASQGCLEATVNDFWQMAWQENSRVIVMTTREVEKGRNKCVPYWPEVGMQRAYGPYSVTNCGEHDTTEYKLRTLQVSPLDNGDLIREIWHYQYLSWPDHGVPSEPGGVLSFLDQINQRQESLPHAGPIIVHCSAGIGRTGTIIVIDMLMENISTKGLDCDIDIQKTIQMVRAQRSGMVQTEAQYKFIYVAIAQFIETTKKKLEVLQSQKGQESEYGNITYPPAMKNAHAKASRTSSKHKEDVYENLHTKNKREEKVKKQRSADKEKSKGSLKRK
Chain of Receptor-type tyrosine-protein phosphatase F (P10586 whole entry): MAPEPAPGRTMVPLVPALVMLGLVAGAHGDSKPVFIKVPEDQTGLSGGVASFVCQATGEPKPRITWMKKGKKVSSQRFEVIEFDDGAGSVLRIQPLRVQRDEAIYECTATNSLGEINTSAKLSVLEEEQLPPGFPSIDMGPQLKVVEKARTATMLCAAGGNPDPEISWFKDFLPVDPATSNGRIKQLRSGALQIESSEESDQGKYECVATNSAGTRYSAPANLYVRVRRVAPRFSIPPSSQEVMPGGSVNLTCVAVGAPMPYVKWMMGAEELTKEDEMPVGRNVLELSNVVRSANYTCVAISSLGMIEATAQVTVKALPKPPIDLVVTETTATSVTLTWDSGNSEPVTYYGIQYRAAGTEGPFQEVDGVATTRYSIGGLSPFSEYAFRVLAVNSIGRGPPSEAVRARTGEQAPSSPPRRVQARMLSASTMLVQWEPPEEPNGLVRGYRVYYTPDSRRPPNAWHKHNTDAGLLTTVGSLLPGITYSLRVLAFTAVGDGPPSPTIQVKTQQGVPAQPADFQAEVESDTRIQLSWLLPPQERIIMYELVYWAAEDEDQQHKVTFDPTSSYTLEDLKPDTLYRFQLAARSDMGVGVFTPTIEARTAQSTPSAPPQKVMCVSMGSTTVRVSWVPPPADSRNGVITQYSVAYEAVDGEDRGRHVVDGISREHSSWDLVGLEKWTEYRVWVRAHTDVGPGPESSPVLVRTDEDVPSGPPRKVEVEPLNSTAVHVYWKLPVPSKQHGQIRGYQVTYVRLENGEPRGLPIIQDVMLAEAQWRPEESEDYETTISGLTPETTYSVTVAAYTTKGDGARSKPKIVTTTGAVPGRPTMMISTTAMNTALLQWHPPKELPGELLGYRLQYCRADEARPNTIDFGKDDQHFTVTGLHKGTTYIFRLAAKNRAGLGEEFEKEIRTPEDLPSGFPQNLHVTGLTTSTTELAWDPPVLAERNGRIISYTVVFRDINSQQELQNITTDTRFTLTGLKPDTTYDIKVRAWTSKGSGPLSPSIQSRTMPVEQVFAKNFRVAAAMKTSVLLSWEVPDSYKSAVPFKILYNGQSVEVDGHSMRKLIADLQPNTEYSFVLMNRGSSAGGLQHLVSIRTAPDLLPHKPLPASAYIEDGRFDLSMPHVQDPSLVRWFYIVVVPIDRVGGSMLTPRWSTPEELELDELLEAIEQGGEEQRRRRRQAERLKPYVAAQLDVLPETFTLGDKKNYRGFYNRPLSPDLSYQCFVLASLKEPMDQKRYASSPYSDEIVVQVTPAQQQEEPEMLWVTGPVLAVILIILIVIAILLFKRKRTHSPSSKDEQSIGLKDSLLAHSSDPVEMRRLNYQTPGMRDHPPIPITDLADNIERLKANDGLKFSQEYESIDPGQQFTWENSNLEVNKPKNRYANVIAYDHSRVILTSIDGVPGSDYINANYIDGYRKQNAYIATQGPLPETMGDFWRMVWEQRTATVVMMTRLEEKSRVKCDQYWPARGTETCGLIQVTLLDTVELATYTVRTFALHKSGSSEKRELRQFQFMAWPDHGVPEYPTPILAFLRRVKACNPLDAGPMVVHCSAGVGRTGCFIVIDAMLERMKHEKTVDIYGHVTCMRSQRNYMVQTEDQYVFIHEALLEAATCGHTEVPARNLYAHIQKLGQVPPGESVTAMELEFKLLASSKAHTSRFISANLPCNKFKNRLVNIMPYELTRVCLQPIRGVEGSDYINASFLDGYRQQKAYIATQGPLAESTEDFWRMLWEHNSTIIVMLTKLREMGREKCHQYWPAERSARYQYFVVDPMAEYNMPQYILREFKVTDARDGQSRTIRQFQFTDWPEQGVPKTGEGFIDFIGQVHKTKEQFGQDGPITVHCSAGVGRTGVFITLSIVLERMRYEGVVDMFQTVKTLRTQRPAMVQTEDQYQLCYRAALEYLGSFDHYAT
Description for Escherichia coli: Antibacterial activity against Escherichia coli ATCC 25922 assessed as reduction in microbial growth after 12 hrs by microbroth dilution method

For the compound `CN[C@@H]1[C@@H](O)[C@@H](O[C@@H]2[C@@H](O)[C@H](O[C@H]3O[C@H](CN)CC[C@H]3N)[C@@H](N)C[C@H]2N)OC[C@]1(C)O.O=S(=O)(O)O`, the MIC in the test on Streptococcus agalactiae turned out to be 10 µg/mL; with Staphylococcus aureus [1], 2 µg/mL; in the test on Staphylococcus aureus [2], 5 µg/mL; in test [3], 1 µg/mL; in the test with Bacillus subtilis, 0.5 µg/mL.
A word on the IC50: it is the point on the concentration scale where inhibition reaches its midpoint. In turn, `CC(=O)c1ccc(NC2=C(Cl)C(=O)c3ccccc3C2=O)cc1` registered an IC50 in [4] of 0.29 µM.
Turning to `C=C[C@@]1(C)C=C(C)[C@@H]2[C@@H]3[C@H](Oc4ccc(cc4)C[C@@H]4C(=O)NC(=O)[C@@H]4C(=O)[C@H]31)[C@@H]1[C@@H](C)C[C@@H](C)C[C@]12C`, the IC50 is above 200 µM in test [5]; 75 µM in the test on NCI-H1975; 8.1 µM in test [6]; 25 µM in test [7]; 14 µM in [8]. The MIC with Streptococcus agalactiae came to 100 µg/mL; in the test on Escherichia coli, 50 µg/mL (≈ 99.7 µM); in the test on Staphylococcus aureus [1] it was 100 µg/mL; in the test with Staphylococcus aureus [2], 50 µg/mL; in [3] it was 50 µg/mL; in the test with Bacillus subtilis it was 20 µg/mL.
As for `CO[C@@]12Cc3ccc(cc3)O[C@H]3[C@@H]4[C@H]5C(=O)[C@](C[C@H](O)OO[C@@]5(C)[C@H]5O[C@@]5(C)[C@H]4[C@]4(C)C[C@H](C)C[C@H](C)[C@@H]34)(C1)C(=O)N2`, the IC50 in [5] is above 200 µM; with NCI-H1975, above 80 µM; in test [6], above 200 µM; in [4] it was above 200 µM; in test [7], above 200 µM; in test [8], above 200 µM. For the same compound, the MIC was determined as 50 µg/mL in the test on Streptococcus agalactiae; 50 µg/mL (≈ 86 µM) against Escherichia coli; 50 µg/mL in the test on Staphylococcus aureus [1]; 50 µg/mL in the test on Staphylococcus aureus [2]; 50 µg/mL in test [3]; 50 µg/mL with Bacillus subtilis.
For `C[C@@H]1C[C@H](C)[C@H]2[C@H]3Oc4ccc(cc4)C[C@]4(O)C/C(=C(/O)[C@H]5[C@H](C)[C@H]6O[C@@]6(C)[C@H]([C@H]35)[C@]2(C)C1)C(=O)N4`, the MIC in the test on Streptococcus agalactiae stood at 50 µg/mL; in the test on Escherichia coli, 20 µg/mL (≈ 40.5 µM); in the test with Staphylococcus aureus [1], 50 µg/mL; in the test with Staphylococcus aureus [2], 50 µg/mL; in test [3], 20 µg/mL; in the test with Bacillus subtilis, 20 µg/mL.
Regarding `C=C[C@@]1(C)C=C(C)[C@@H]2[C@@H]3[C@@H](Oc4ccc(cc4)C[C@@]4(O)C/C(=C(/O)[C@H]31)C(=O)N4)[C@@H]1[C@@H](C)C[C@@H](C)C[C@]12C`, the IC50 in test [5] was above 200 µM; with NCI-H1975, 72 µM; in test [6], 100 µM; in test [4] it was 100 µM; in [7], 89 µM; in [8] it was 92 µM. For the same compound, the MIC in the test on Streptococcus agalactiae is 20 µg/mL; against Escherichia coli, 20 µg/mL (≈ 39.7 µM); in the test on Staphylococcus aureus [1], 20 µg/mL; with Staphylococcus aureus [2], 20 µg/mL; in [3], 20 µg/mL; in the test with Bacillus subtilis it was 10 µg/mL.
Take `CO[C@@H]1C2Cc3ccc(cc3)O[C@H]3[C@H]4[C@@H](C(C)=C[C@]5(C)CC[C@@]1(C(=O)N2)C(=O)[C@H]45)[C@]1(C)C[C@H](C)C[C@H](C)[C@@H]31`: the MIC (in the test on Streptococcus agalactiae; against Escherichia coli; in the test with Staphylococcus aureus [1]; in the test on Staphylococcus aureus [2]; in test [3]; in the test on Bacillus subtilis) was above 100 µg/mL throughout.
In the case of `C[C@@H]1C[C@H](C)[C@H]2[C@H]3Oc4ccc(cc4)C[C@]4(O)C[C@]5(C[C@H](O)OO[C@@]6(C)[C@H]7O[C@@]7(C)[C@H]([C@H]3[C@H]6C5=O)[C@]2(C)C1)C(=O)N4`, the concentration for half-maximal inhibition (IC50) in test [5] is above 200 µM; in the test with NCI-H1975, above 80 µM; in test [6], above 200 µM; in [4], above 200 µM; in test [7], above 200 µM; in test [8] it was above 200 µM. Also, the MIC was 50 µg/mL with Streptococcus agalactiae; 50 µg/mL (≈ 88.1 µM) against Escherichia coli; 50 µg/mL in the test with Staphylococcus aureus [1]; 50 µg/mL in the test with Staphylococcus aureus [2]; 50 µg/mL in test [3]; 50 µg/mL in the test with Bacillus subtilis.
For the compound `CO[C@@H]1/C2=C3\O[C@@H](C)[C@@]4(C)C=C(C)[C@@H]5[C@H]([C@H](Oc6ccc(cc6)C[C@]1(O)NC2=O)[C@@H]1[C@@H](C)C[C@@H](C)C[C@]15C)[C@@H]34`, the IC50 is above 200 µM in test [5]; 55 µM in the test with NCI-H1975; 190 µM in test [6]; 63 µM in test [4]; 39 µM in test [7]; 79 µM in test [8].
As to `CC(=O)[C@@H]1[C@@H]2[C@H](Oc3ccc(cc3)C[C@]3(O)C[C@]4(C[C@@H](O)[C@](C)(C=O)[C@@H]2C4=O)C(=O)N3)[C@@H]2[C@@H](C)C[C@@H](C)C[C@]21C`, the IC50 in test [5] is above 200 µM; in the test on NCI-H1975, above 80 µM; in test [6], above 200 µM; in [4] it was above 200 µM; in [7], above 200 µM; in test [8], above 200 µM. The MIC with Streptococcus agalactiae is above 100 µg/mL; in the test with Escherichia coli, 100 µg/mL (≈ 181 µM); in the test with Staphylococcus aureus [1], above 100 µg/mL; in the test with Staphylococcus aureus [2], above 100 µg/mL; in test [3], 100 µg/mL; in the test with Bacillus subtilis, 100 µg/mL.
On to `CO[C@@]12Cc3ccc(cc3)O[C@H]3[C@H]([C@H]4C(=O)[C@](C[C@@H](O)[C@]4(C)C=O)(C1)C(=O)N2)[C@@H](C(C)=O)[C@]1(C)C[C@H](C)C[C@H](C)[C@@H]31`, for which the IC50 is above 200 µM in test [5]; above 200 µM in test [6]; 100 µM in test [4]; 58 µM in test [7]; 130 µM in [8]. Besides, the MIC in the test on Streptococcus agalactiae was above 100 µg/mL; against Escherichia coli, 100 µg/mL (≈ 177 µM); in the test on Staphylococcus aureus [1], above 100 µg/mL; in the test on Staphylococcus aureus [2], above 100 µg/mL; in test [3], 100 µg/mL; in the test on Bacillus subtilis, 100 µg/mL.
